From patent US5270334A, “4-methoxy-5-methyl-pyran-3-ol natural products and derivatives thereof” (E. R. Squibb & Sons, Inc., priority 1992, dated 1993) come the findings set out here.

Values after ≈ are worked out from the molar mass of the structure shown.

For one data set, the system named is Staphylococcus aureus. Nature of the data set: Antibacterial and antifungal activity of lanomycin, agar dilution assay (Table 4). The data set is classed as cell-based. On the procedure: (§1) *Minimal inhibitory concentrations were determined by agar dilution assay
Data set [1] deals with Trichophyton mentagrophytes. The description is as above. The data set is classed as cell-based. Particulars: SC2637, Trichophyton mentagrophytes SC 2637. The procedure: as §1
The subject of the next data set is Candida guillermondii. The description is as above. It is filed as cell-based. The conditions noted are these: SC2996, Candida guillermondii SC 2996. The procedure: as §1
For a further data set, the system named is Aspergillus fumigatus. The data set is described as above. The data set is classed as cell-based. Particulars: SC2100, Aspergillus fumigatus SC 2100. On the procedure: as §1
The test system of another data set is Escherichia coli. The description is as above. It is filed as cell-based. Particulars: SC8294; Escherichia coli SC 8294. On the procedure: as §1
For a further data set, the system named is Micrococcus luteus. The description is as above. The data set is classed as cell-based. The conditions noted are these: SC2495; Micrococcus luteus SC 2495. The procedure: as §1
In a further data set the test system is Pseudomonas aeruginosa. The description is as above. The data set is classed as cell-based. Particulars: SC8329; Pseudomonas aeruginosa SC 8329. On the procedure: as §1
Data set [2] deals with Candida tropicalis. The data set is described as above. It is filed as cell-based. Particulars: SC2963, Candida tropicalis SC 2963. The procedure:
as §1

In the next data set the test system is Proteus mirabilis. The data set is described as above. It is filed as cell-based. The conditions noted are these: SC3855; Proteus mirabilis SC 3855. The procedure:
as §1

For the next data set, the system named is Candida albicans. The data set is described as above. It is filed as cell-based. The procedure: as §1
The test system of a further data set is Trichophyton rubrum. The description is as above. The data set is classed as cell-based. Particulars: SC9199, Trichophyton rubrum SC 9199. On the procedure: as §1
The subject of a further data set is Klebsiella aerogenes. The description is as above. It is filed as cell-based. Particulars: SC10440; Klebsiella aerogenes SC 10440. On the procedure:
as §1

For another data set, the system named is Enterococcus faecalis. The description is as above. The data set is classed as cell-based. Particulars: SC9011; Enterococcus faecalis SC 9011. On the procedure: as §1
Data set [3] can be described thus: acute toxicity, intraperitoneal administration to mice. Particulars: mouse, in vivo, ip, random bred Swiss Webster Female mice.
The next data set has as its system Epidermophyton floccosum. Nature of the data set: MIC of scopularin, agar dilution assay (K-10 agar). It is filed as cell-based. The conditions noted are these: SC9185, 18 h; Epidermophyton floccosum SC 9185. On the procedure: (§2) The following methodology was used to determine the miniumum inhibitory concentration (hereinafter referred to as MIC) of scopularin.
(§3) The aerobic test organisms were grown in approximately 15-20ml of Antibiotic Assay Broth (Difco) by inoculating (in tubes) the broth with a loopful of the organism from a BHI (Difco) agar slant. The inoculated tubes were incubated at 37° C. for 18 to 24 hours. These cultures are assumed to contain 10^7 colony forming units (CFU) per ml and the cultures were diluted 1:100 to give a final inoculum level of 10^5 CFU; dilutions were made with Yeast Beef Broth (Difco).
(§4) Scopularin was dissolved in an appropriate diluent at a concentration of 1,000 μg/ml. Two-fold dilutions were made in Yeast Beef Broth (Difco), resulting in a range from 1000 µg/ml to 0.5 μg/ml. 1.5 ml of each dilution was placed into individual petri dishes to which 13.5ml of K-10 agar was added. The composition of K-10 agar is:
(§5) The final drug concentration in the agar ranged from 100 μg/ml to 0.05 μg/ml. Organism growth control plates containing agar only were prepared and inoculated before and after the test plates. The organisms were applied to the agar surface of each plate with a Denly Multipoint Inoculator (which delivers approximately 0.001 ml of each organism) resulting in a final inoculum of 10^4 CFU on the agar surface.
(§6) The plates were incubated at 37° C. for 18 hours and the MICs determined. The MIC is the lowest concentration of compound inhibiting growth of the organism.

In a further data set the test system is Microsporum canis. The experiment in a line: MIC of scopularin, agar dilution assay (K-10 agar). The data set is classed as cell-based. The conditions noted are these: SC9237, 18 h; Microsporum canis SC 9237. The procedure:
as §2, §3, §4, §5, §6

For the next data set, the system named is Candida pseudotropicalis. Nature of the data set: MIC of scopularin, agar dilution assay (K-10 agar). It is filed as cell-based. The conditions noted are these: Kluyveromyces marxianus, SC11, 18 h; Candida pseudotropicalis SC 11,241. The procedure:
as §2, §3, §4, §5, §6

In data set [4] the test system is Candida tropicalis. The experiment in a line: MIC of scopularin, agar dilution assay (K-10 agar). It is filed as cell-based. On the procedure:
as §2, §3, §4, §5, §6

The subject of a further data set is Candida stellatoidea. Nature of the data set: MIC of scopularin, agar dilution assay (K-10 agar). It is filed as cell-based. Particulars: Candida albicans, SC2211, 18 h; Candida stellatoidea SC 2211. The procedure:
as §2, §3, §4, §5, §6

Regarding `C/C=C/C=C/C=C(\C)[C@H]1OC[C@@H](C)[C@@H](OC)[C@@H]1OC(=O)CN` (relative stereo) [Lanomycin], the MIC with Staphylococcus aureus (SC1276, Staphylococcus aureus SC 1276) was above 100 µg/mL; against Staphylococcus aureus (SC2399, Staphylococcus aureus SC 2399) it was above 100 µg/mL; in data set [1], 0.8 µg/mL (≈ 2.59 µM); against Candida guillermondii, 1.6 µg/mL (≈ 5.17 µM); in the data set on Aspergillus fumigatus, 100 µg/mL (≈ 323 µM); in the data set with Escherichia coli, above 100 µg/mL. In addition, the MIC in the data set with Micrococcus luteus is above 100 µg/mL; against Pseudomonas aeruginosa it was above 100 µg/mL; with Candida tropicalis [2], 25 µg/mL (≈ 80.8 µM); against Proteus mirabilis, above 100 µg/mL; in the data set with Candida albicans (SC5314, Candida albicans SC 5314), above 100 µg/mL; against Candida albicans (SC11422, Candida albicans SC 11422) it was 100 µg/mL (≈ 323 µM). Further, the MIC is 1.6 µg/mL (≈ 5.17 µM) against Trichophyton rubrum, above 100 µg/mL against Klebsiella aerogenes and above 100 µg/mL against Enterococcus faecalis. The compound also displayed an LD50 in data set [3] of 385 mg/kg.
With `CCC/C=C/C=C/C=C(\C)[C@H]1OC[C@@H](C)[C@@H](OC)[C@@H]1OC(=O)CN` (relative stereo) [Scopularin, (2α, 3β, 4α, 5α)-Tetrahydro-4-methoxy-5-methyl-2-(1-methyl-1,3,5-nonatrienyl)-2H-pyran-3-ol, aminoacetate ester], the MIC was determined as 0.2 µg/mL in the data set on Epidermophyton floccosum; 0.4 µg/mL with Microsporum canis; 25 µg/mL in the data set with Candida pseudotropicalis; 25 µg/mL in the data set with Candida tropicalis [4] (SC10, 18 h, Candida tropicalis SC 10,597); 6.3 µg/mL with Candida tropicalis [4] (SC2963, 18 h, Candida tropicalis SC 2963 (AmphoB^R)); 25 µg/mL with Candida tropicalis [4] (SC8159, 18 h, Candida tropicalis SC 8159). The MIC with Candida tropicalis [4] (SC9861, 18 h, Candida tropicalis SC 9861 (AmphoB^R)) is 25 µg/mL; with Candida stellatoidea, 25 µg/mL.
